Reference: patent publication US11000033B2, “Ketone or oxime compound, and herbicide” (NISSAN CHEMICAL CORPORATION, priority 2014, dated 2021)

Legend:
Type in all cases: in vivo
Veronica persica [1] = assay: Test Example 5: herbicidal effect by foliage application, plastic box (symbol R); details: 3 weeks after application; for R: Veronica persica, herbicidal effect (criteria 0-5): 320 g/ha
How it was run: (§1)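 Effect is rated 3 weeks after a foliar spray of water-diluted emulsion concentrate at a predetermined herbicide amount. Plants had grown 14 days in a 25° C. to 30° C. greenhouse from seed in sterilized diluvial soil.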

Galium spurium = assay: Test Example 4: herbicidal effect by soil treatment (symbol Q)
How it was run: (§2)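 Seeds were sown in sterilized diluvial soil, covered with about 1.5 cm of soil, and the soil surface was sprayed with a water-diluted emulsion of the compound at a predetermined rate. Plants grew in a greenhouse at 25° C. to 30° C.; effects were scored visually 3 weeks after application.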

Amaranthus retroflexus = assay: Test Example 5: herbicidal effect by foliage application, plastic box (symbol N); details: 3 weeks after application; for N: Amaranthus retroflexus, herbicidal effect (criteria 0-5): 320 g/ha
How it was run: as §1

rice = assay: Test Example 4: effect on crop by soil treatment (symbol b)
How it was run: (§3)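 Seeds were sown in spots on sterilized diluvial soil in a plastic box and covered with about 1.5 cm of soil. Plants were then grown in a greenhouse at 25° C. to 30° C.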

Avena fatua = assay: Test Example 5: herbicidal effect by foliage application, plastic box (symbol I); details: 3 weeks after application; for I: Avena fatua, herbicidal effect (criteria 0-5): 320 g/ha
How it was run: as §1

Alopecurus myosuroides [2] = assay: Test Example 4: herbicidal effect by soil treatment (symbol J)
How it was run: as §2

soybean [3] = assay: Test Example 4: effect on crop by soil treatment (symbol d)
How it was run: as §3

Setaria viridis [4] = assay: Test Example 5: herbicidal effect by foliage application, plastic box (symbol G); details: 3 weeks after application; for G: Setaria viridis, herbicidal effect (criteria 0-5): 320 g/ha
How it was run: as §1

soybean [5] = assay: Test Example 5: effect on crop by foliage application, plastic box (symbol d); details: 3 weeks after application; for d: soybean, effect on crop (criteria 0-5): 320 g/ha
How it was run: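 A greenhouse held between 25° C. and 30° C. was used to grow plants sown spot-wise, beneath ~1.5 cm of soil, in boxes of sterilized diluvial soil.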

Apera spica-venti = assay: Test Example 4: herbicidal effect by soil treatment (symbol L)
How it was run: as §2

Lolium multiflorum Lam. [6] = assay: Test Example 4: herbicidal effect by soil treatment (symbol K)
How it was run: as §2

corn = assay: Test Example 4: effect on crop by soil treatment (symbol c)
How it was run: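 Grown at 25° C. to 30° C. in a greenhouse, the crops came from seed sown spot-wise in sterilized diluvial soil under roughly 1.5 cm of covering soil.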

Setaria viridis [7] = assay: Test Example 4: herbicidal effect by soil treatment (symbol G)
How it was run: as §2

Cyperus difformis = assay: Test Example 3: herbicidal effect by foliage application, Wagner pot (symbol E)
How it was run: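 Seeds sown in alluvial soil kept under 0.1–0.5 cm water, greenhouse 25–30 °C; 14 d growth. Leaves treated by small sprayer with water-diluted emulsion at a predetermined rate. Effect graded by set scale, 3 weeks.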

Lolium multiflorum Lam. [8] = assay: Test Example 5: herbicidal effect by foliage application, plastic box (symbol K); details: 3 weeks after application; for K: Lolium multiflorum Lam., herbicidal effect (criteria 0-5): 320 g/ha
How it was run: as §1

Veronica persica [9] = assay: Test Example 4: herbicidal effect by soil treatment (symbol R)
How it was run: as §2

[10] = test system: Echinochloa oryzacola Vasing.; assay: Test Example 1: herbicidal activity, application before weed generation in submerged conditions (symbol A)
How it was run: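 Scores run 0 to 5 by herbicidal ratio, with 5 meaning 90% or more and 0 meaning 5% or lower, read 3 weeks after treatment. Compound was applied as a diluted emulsion to the water surface of submerged alluvial-soil pots on the day weed seeds were sown.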

Alopecurus myosuroides [11] = assay: Test Example 5: herbicidal effect by foliage application, plastic box (symbol J); details: 3 weeks after application; for J: Alopecurus myosuroides, herbicidal effect (criteria 0-5): 320 g/ha
How it was run: as §1

wheat = assay: Test Example 4: effect on crop by soil treatment (symbol e)
How it was run: as §3

[12] = application herbicide amount 320 g/ha
[13] = application herbicide amount 102 g/ha

SMILES	R: Veronica persica, herbicidal effect (criteria 0-5) (Veronica persica [1])	Q: Galium spurium, herbicidal effect grade (Galium spurium; 320 g/ha)	N: Amaranthus retroflexus, herbicidal effect (criteria 0-5) (Amaranthus retroflexus)	b: directly sowed rice plant, effect grade on crop (rice; 320 g/ha)	I: Avena fatua, herbicidal effect (criteria 0-5) (Avena fatua)	J: Alopecurus myosuroides, herbicidal effect grade (Alopecurus myosuroides [2]; 320 g/ha)	d: soybean, effect grade on crop (soybean [3]; 320 g/ha)	G: Setaria viridis, herbicidal effect (criteria 0-5) (Setaria viridis [4])	d: soybean, effect on crop (criteria 0-5) (soybean [5])	L: Apera spica-venti, herbicidal effect grade (Apera spica-venti; 320 g/ha)	K: Lolium multiflorum Lam., herbicidal effect grade (Lolium multiflorum Lam. [6]; 320 g/ha)	c: corn, effect grade on crop (corn; 320 g/ha)	G: Setaria viridis, herbicidal effect grade (Setaria viridis [7]; 320 g/ha)	herbicidal effect on E, grade 0-5 (Cyperus difformis; [12])	K: Lolium multiflorum Lam., herbicidal effect (criteria 0-5) (Lolium multiflorum Lam. [8])	R: Veronica persica, herbicidal effect grade (Veronica persica [9]; 320 g/ha)	Herbicidal effect grade, A: Echinochloa oryzacola Vasing. [10, 12]	J: Alopecurus myosuroides, herbicidal effect (criteria 0-5) (Alopecurus myosuroides [11])	e: wheat, effect grade on crop (wheat; 320 g/ha)	other results
CON=C(C)CC1CC(OS(=O)(=O)N(C)C)=C(c2c(C)cc(C)cc2C)C1=O (stereo not drawn) [1-122]	0 (Herbicidal ratio of 5% or lower (almost no effect))	0 (Herbicidal ratio of 5% or lower (almost no effect))	1 (Herbicidal ratio of 5% or higher and lower than 20%)	4 (Herbicidal ratio of 70% or higher and lower than 90%)	5 (Herbicidal ratio of 90% or more (almost completely withered))	5 (Herbicidal ratio of 90% or more (almost completely withered))	0 (Herbicidal ratio of 5% or lower (almost no effect))	5 (Herbicidal ratio of 90% or more (almost completely withered))	4 (Herbicidal ratio of 70% or higher and lower than 90%)	1 (Herbicidal ratio of 5% or higher and lower than 20%)	5 (Herbicidal ratio of 90% or more (almost completely withered))	2 (Herbicidal ratio of 20% or higher and lower than 40%)	3 (Herbicidal ratio of 40% or higher and lower than 70%)	5 (Herbicidal ratio of 90% or more (almost completely withered))	5 (Herbicidal ratio of 90% or more (almost completely withered))	0 (Herbicidal ratio of 5% or lower (almost no effect))	5 (Herbicidal ratio of 90% or more (almost completely withered))	5 (Herbicidal ratio of 90% or more (almost completely withered))	0 (Herbicidal ratio of 5% or lower (almost no effect))	
CC(=O)CC1CC(O)=C(c2c(C)cc(C)cc2C)C1=O (stereo not drawn) [2-001, 3-hydroxy-2-mesityl-5-(2-oxopropyl)cyclopent-2-enone]																				R: Veronica persica, herbicidal effect grade (Veronica persica [1]; 102 g/ha): 2 (Herbicidal ratio of 20% or higher and lower than 40%); Q: Galium spurium, herbicidal effect grade (Galium spurium; 102 g/ha): 0 (Herbicidal ratio of 5% or lower (almost no effect)); N: Amaranthus retroflexus, herbicidal effect grade (Amaranthus retroflexus; 102 g/ha): 2 (Herbicidal ratio of 20% or higher and lower than 40%); b: directly sowed rice plant, effect grade on crop (rice; 102 g/ha): 5 (Herbicidal ratio of 90% or more (almost completely withered)); I: Avena fatua, herbicidal effect grade (Avena fatua; 102 g/ha): 4 (Herbicidal ratio of 70% or higher and lower than 90%); J: Alopecurus myosuroides, herbicidal effect grade (Alopecurus myosuroides [2]; 102 g/ha): 4 (Herbicidal ratio of 70% or higher and lower than 90%); d: soybean, effect grade on crop (soybean [3]; 102 g/ha): 0 (Herbicidal ratio of 5% or lower (almost no effect)); G: Setaria viridis, herbicidal effect grade (Setaria viridis [4]; 102 g/ha): 4 (Herbicidal ratio of 70% or higher and lower than 90%); d: soybean, effect on crop grade (soybean [5]; 102 g/ha): 0 (Herbicidal ratio of 5% or lower (almost no effect)); L: Apera spica-venti, herbicidal effect grade (Apera spica-venti; 102 g/ha): 2 (Herbicidal ratio of 20% or higher and lower than 40%); K: Lolium multiflorum Lam., herbicidal effect grade (Lolium multiflorum Lam. [6]; 102 g/ha): 5 (Herbicidal ratio of 90% or more (almost completely withered)); c: corn, effect grade on crop (corn; 102 g/ha): 4 (Herbicidal ratio of 70% or higher and lower than 90%); G: Setaria viridis, herbicidal effect grade (Setaria viridis [7]; 102 g/ha): 4 (Herbicidal ratio of 70% or higher and lower than 90%); herbicidal effect on E, grade 0-5 (Cyperus difformis; [13]): 5 (Herbicidal ratio of 90% or more (almost completely withered)); K: Lolium multiflorum Lam., herbicidal effect grade (Lolium multiflorum Lam. [8]; 102 g/ha): 5 (Herbicidal ratio of 90% or more (almost completely withered)); R: Veronica persica, herbicidal effect grade (Veronica persica [9]; 102 g/ha): 0 (Herbicidal ratio of 5% or lower (almost no effect)); Herbicidal effect grade, A: Echinochloa oryzacola Vasing. [10, 13]: 4 (Herbicidal ratio of 70% or higher and lower than 90%); J: Alopecurus myosuroides, herbicidal effect grade (Alopecurus myosuroides [11]; 102 g/ha): 5 (Herbicidal ratio of 90% or more (almost completely withered)); e: wheat, effect grade on crop (wheat; 102 g/ha): 0 (Herbicidal ratio of 5% or lower (almost no effect))
CC(CC1CC(O)=C(c2c(C)cc(C)cc2C)C1=O)=NOC1CCCC1 (stereo not drawn) [1-106]	1 (Herbicidal ratio of 5% or higher and lower than 20%)	0 (Herbicidal ratio of 5% or lower (almost no effect))	5 (Herbicidal ratio of 90% or more (almost completely withered))	5 (Herbicidal ratio of 90% or more (almost completely withered))	5 (Herbicidal ratio of 90% or more (almost completely withered))	5 (Herbicidal ratio of 90% or more (almost completely withered))	0 (Herbicidal ratio of 5% or lower (almost no effect))	5 (Herbicidal ratio of 90% or more (almost completely withered))	0 (Herbicidal ratio of 5% or lower (almost no effect))	5 (Herbicidal ratio of 90% or more (almost completely withered))	5 (Herbicidal ratio of 90% or more (almost completely withered))	1 (Herbicidal ratio of 5% or higher and lower than 20%)	5 (Herbicidal ratio of 90% or more (almost completely withered))	5 (Herbicidal ratio of 90% or more (almost completely withered))	5 (Herbicidal ratio of 90% or more (almost completely withered))	0 (Herbicidal ratio of 5% or lower (almost no effect))	5 (Herbicidal ratio of 90% or more (almost completely withered))	5 (Herbicidal ratio of 90% or more (almost completely withered))	3 (Herbicidal ratio of 40% or higher and lower than 70%)	
